The results in this text go back to patent US10577363B2, “Substituted piperidine compounds” (EPIZYME, INC., priority 2014, dated 2020).

The target of test [1] is T1, SMYD3 (Homo sapiens (Human), UniProt Q9H7B4). The test can be described thus: SMYD3 cell assay (Trimethyl-MEKK2 In-Cell Western in 293T/17 cells). As to conditions: average of n = 1 to n = 50; read-out: SMYD3 Cell IC50. Format: cell-based. Summed up: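 In-Cell Western readout: methanol-fixed cells stained for trimethyl-MEKK2 and flag tag, ratio per well normalized to DMSO and background controls.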

Test [2] deals with T1, SMYD3. The test can be described thus: SMYD3 biochemical assay (SPA, 3H-SAM methylation of MEKK2 protein substrate). The settings on record: average of n = 1 to n = 50; read-out: SMYD3 Biochem IC50. The gist of the method:
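Methylation of N-terminally GST-tagged MEKK2 by untagged full-length human SMYD3, using 3H-SAM, in pH 8.0 Tris buffer with TCEP, BSG and Tween 20; enzyme and compound sat 30 min at room temperature before substrate addition. Stopped with 100 uM (final) cold SAM; incorporation read by scintillation proximity as dpm/cpm.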

T1 sequence (Q9H7B4 whole entry): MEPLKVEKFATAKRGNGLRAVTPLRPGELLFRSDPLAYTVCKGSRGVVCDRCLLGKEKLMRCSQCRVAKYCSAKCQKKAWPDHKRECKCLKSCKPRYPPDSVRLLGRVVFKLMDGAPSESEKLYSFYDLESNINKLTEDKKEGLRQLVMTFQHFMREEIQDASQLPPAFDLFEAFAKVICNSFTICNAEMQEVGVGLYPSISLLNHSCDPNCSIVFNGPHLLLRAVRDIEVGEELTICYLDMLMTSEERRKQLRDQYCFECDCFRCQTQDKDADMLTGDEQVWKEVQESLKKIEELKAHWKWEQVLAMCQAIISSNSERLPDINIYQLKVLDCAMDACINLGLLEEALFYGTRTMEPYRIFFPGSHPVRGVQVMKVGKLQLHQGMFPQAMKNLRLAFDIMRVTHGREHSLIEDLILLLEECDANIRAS

`COCCN1CCC(CS(=O)(=O)N2CC[C@@H](NC(=O)c3cc(C4CC4)on3)[C@@H](C)C2)CC1` [compound 654, 5-cyclopropyl-N-((3S,4R)-1-(((1-(2-methoxyethyl)piperidin-4-yl)methyl)sulfonyl)-3-methylpiperidin-4-yl)isoxazole-3-carboxamide]: the IC50 (as a rule, the concentration needed to halve the response being measured) at SMYD3 [1] was found to be 340 nM; on SMYD3 [2], 56 nM.
In the case of `C[C@H]1CN(S(=O)(=O)CC2CCN(Cc3ccccc3)CC2)CC[C@H]1NC(=O)c1cc(C2CC2)on1` [compound 655, N-((3S,4R)-1-(((1-benzylpiperidin-4-yl)methyl)sulfonyl)-3-methylpiperidin-4-yl)-5-cyclopropylisoxazole-3-carboxamide], the results for the IC50 on SMYD3 [1] and at SMYD3 [2] were 497 nM and 56.4 nM, respectively.
On to `CN1CCN(S(=O)(=O)N2[C@@H]3CC[C@H]2C[C@@H](NC(=O)c2cc(C4CC4)on2)C3)CC1(C)C` [compound 656, 5-cyclopropyl-N-((1R,3r,5S)-8-((3,3,4-trimethylpiperazin-1-yl)sulfonyl)-8-azabicyclo[3.2.1]octan-3-yl)isoxazole-3-carboxamide], for which the IC50 at SMYD3 [1] was 441 nM; on SMYD3 [2], 59.8 nM.
For `C[C@@H]1CN(C(=O)c2ccc(C(C)(C)N)cc2)[C@H](C)C[C@@H]1NC(=O)c1cc(C2CC2)on1` [compound 657, N-((2R,4S,5R)-1-(4-(2-aminopropan-2-yl)benzoyl)-2,5-dimethylpiperidin-4-yl)-5-cyclopropylisoxazole-3-carboxamide], the IC50 on SMYD3 [1] is 634 nM; at SMYD3 [2], 63.4 nM.
The like results for `C[C@@H]1C[C@H](NC(=O)c2cc(C3CC3)on2)CCN1C(=O)c1ccc(CN2CCNCC2)cc1` [compound 658, 5-cyclopropyl-N-((2R,4R)-2-methyl-1-(4-(piperazin-1-ylmethyl)benzoyl)piperidin-4-yl)isoxazole-3-carboxamide] were, in that order, 1400 nM and 64.7 nM.
In the same order, the values of `CN(C1CCN(Cc2ccccc2)CC1)S(=O)(=O)N1[C@@H]2CC[C@H]1C[C@@H](NC(=O)c1cc(C3CC3)on1)C2` [compound 659, N-((1R,3r,5S)-8-(N-(1-benzylpiperidin-4-yl)-N-methylsulfamoyl)-8-azabicyclo[3.2.1]octan-3-yl)-5-cyclopropylisoxazole-3-carboxamide] are 578 nM and 66.4 nM.
Take `CC1CN(S(=O)(=O)N2[C@@H]3CC[C@H]2C[C@@H](NC(=O)c2cc(C4CC4)on2)C3)CCN1C` (stereo partly drawn) [compound 660, 5-cyclopropyl-N-((1R,3r,5S)-8-((3,4-dimethylpiperazin-1-yl)sulfonyl)-8-azabicyclo[3.2.1]octan-3-yl)isoxazole-3-carboxamide]: the values for the IC50 at SMYD3 [1] and on SMYD3 [2] were 414 nM and 66.7 nM, respectively.
In the case of `C[C@@H]1CN(S(=O)(=O)N2CC[C@H](NC(=O)c3cc(C4CC4)on3)C[C@@H]2C)[C@@H](C)CN1` [compound 661, 5-cyclopropyl-N-((2S,4S)-1-(((2S,5R)-2,5-dimethylpiperazin-1-yl)sulfonyl)-2-methylpiperidin-4-yl)isoxazole-3-carboxamide], the IC50 at SMYD3 [1] was determined as 490 nM; at SMYD3 [2] it was 77.3 nM.
Turning to `O=C(N[C@H]1CCN(S(=O)(=O)CC2CCN(CCO)CC2)[C@@H](Cc2ccccc2)C1)c1cc(C2CC2)on1` [compound 662, N-((2S,4S)-2-benzyl-1-(((1-(2-hydroxyethyl)piperidin-4-yl)methyl)sulfonyl)piperidin-4-yl)-5-cyclopropylisoxazole-3-carboxamide], the IC50 at SMYD3 [1] turned out to be 1550 nM; at SMYD3 [2], 80.1 nM.
In the same order, the values of `O=C(N[C@H]1C[C@H]2CC[C@@H](C1)N2S(=O)(=O)CCN1CCC(N2CCCCC2)C1)c1cc(C2CC2)on1` (stereo partly drawn) [compound 663, 5-cyclopropyl-N-((1R,3r,5S)-8-((2-(3-(piperidin-1-yl)pyrrolidin-1-yl)ethyl)sulfonyl)-8-azabicyclo[3.2.1]octan-3-yl)isoxazole-3-carboxamide] are 670 nM and 85.1 nM.
Consider `C[C@@H]1C[C@H](NC(=O)c2cc(C3CC3)on2)CCN1C(=O)c1ccc([C@@H](C)N)cc1` [compound 664, N-((2R,4R)-1-(4-((R)-1-aminoethyl)benzoyl)-2-methylpiperidin-4-yl)-5-cyclopropylisoxazole-3-carboxamide], for which the IC50 was 1070 nM on SMYD3 [1] and 86.6 nM on SMYD3 [2].
As for `C[C@@H]1CNCCN1S(=O)(=O)N1CC[C@H](NC(=O)c2cc(C3CC3)on2)C[C@@H]1C` [compound 666, 5-cyclopropyl-N-((2S,4S)-2-methyl-1-(((R)-2-methylpiperazin-1-yl)sulfonyl)piperidin-4-yl)isoxazole-3-carboxamide], the IC50 at SMYD3 [1] was 801 nM; at SMYD3 [2], 90.6 nM.
The like results for `C[C@H]1CN(S(=O)(=O)NC2CCN(C)CC2)CC[C@H]1NC(=O)c1cc(C2CC2)on1` [compound 667, 5-cyclopropyl-N-((3S,4R)-3-methyl-1-(N-(1-methylpiperidin-4-yl)sulfamoyl)piperidin-4-yl)isoxazole-3-carboxamide] were, in that order, 731 nM and 96.9 nM.
Take `C[C@H]1CN(S(=O)(=O)N(C)C2CCN(C)CC2)CC[C@H]1NC(=O)c1cc(C2CC2)on1` [compound 668, 5-cyclopropyl-N-((3S,4R)-3-methyl-1-(N-methyl-N-(1-methylpiperidin-4-yl)sulfamoyl)piperidin-4-yl)isoxazole-3-carboxamide]: the IC50 at SMYD3 [1] worked out at 576 nM; on SMYD3 [2] it was 101 nM.
In the same order, the values of `C[C@@H]1CN(S(=O)(=O)N2CC[C@H](NC(=O)c3cc(C4CC4)on3)C[C@@H]2C)CCN1C` [compound 669, 5-cyclopropyl-N-((2S,4S)-1-(((R)-3,4-dimethylpiperazin-1-yl)sulfonyl)-2-methylpiperidin-4-yl)isoxazole-3-carboxamide] are 398 nM and 102 nM.
The like results for `O=C(N[C@H]1C[C@H]2CC[C@@H](C1)N2S(=O)(=O)CCCNCCN1CCOCC1)c1cc(C2CC2)on1` [compound 670, 5-cyclopropyl-N-((1R,3r,5S)-8-((3-((2-morpholinoethyl)amino)propyl)sulfonyl)-8-azabicyclo[3.2.1]octan-3-yl)isoxazole-3-carboxamide] were, in that order, 886 nM and 103 nM.
Regarding `C[C@@H]1C[C@H](NC(=O)c2cc(C3CC3)on2)CCN1C(=O)c1ccc(OCCN)cc1` [compound 671, N-((2R,4R)-1-(4-(2-aminoethoxy)benzoyl)-2-methylpiperidin-4-yl)-5-cyclopropylisoxazole-3-carboxamide], the IC50 on SMYD3 [1] was determined as 5580 nM; at SMYD3 [2], 104 nM.
`CN(C)CCS(=O)(=O)N1[C@@H]2CC[C@H]1C[C@@H](NC(=O)c1cc(C3CC3)on1)C2` [compound 672, 5-cyclopropyl-N-((1R,3r,5S)-8-((2-(dimethylamino)ethyl)sulfonyl)-8-azabicyclo[3.2.1]octan-3-yl)isoxazole-3-carboxamide]: the figures for the IC50 on SMYD3 [1] and at SMYD3 [2] were 388 nM and 104 nM, respectively.
For `O=C(N[C@H]1C[C@H]2CCC[C@@H](C1)N2S(=O)(=O)CC1CCNCC1)c1cc(C2CC2)on1` [compound 673, 5-cyclopropyl-N-((1R,3r,5S)-9-((piperidin-4-ylmethyl)sulfonyl)-9-azabicyclo[3.3.1]nonan-3-yl)isoxazole-3-carboxamide], the IC50 on SMYD3 [1] was 1680 nM; at SMYD3 [2], 106 nM.
The like results for `C[C@H]1C[C@@H](NC(=O)c2cc(C3CC3)on2)CCN1S(=O)(=O)N(C)C1CCN(C)CC1` [compound 674, 5-cyclopropyl-N-((2S,4S)-2-methyl-1-(N-methyl-N-(1-methylpiperidin-4-yl)sulfamoyl)piperidin-4-yl)isoxazole-3-carboxamide] were, in that order, 1080 nM and 108 nM.
In the same order, the values of `CNCc1ccc(C(=O)N2CC[C@@H](NC(=O)c3cc(C4CC4)on3)C[C@H]2C)cc1` [compound 675, 5-cyclopropyl-N-((2R,4R)-2-methyl-1-(4-((methylamino)methyl)benzoyl)piperidin-4-yl)isoxazole-3-carboxamide] are 1370 nM and 110 nM.
On to `C[C@@H]1C[C@H](NC(=O)c2cc(C3CC3)on2)CCN1S(=O)(=O)CC1CCN(CCN2CCOCC2)CC1` [compound 676, 5-cyclopropyl-N-((2R,4R)-2-methyl-1-(((1-(2-morpholinoethyl)piperidin-4-yl)methyl)sulfonyl)piperidin-4-yl)isoxazole-3-carboxamide], for which the results for the IC50 on SMYD3 [1] and at SMYD3 [2] were more than 10000 nM and 111 nM, respectively.
In the case of `C[C@H]1C[C@@H](NC(=O)c2cc(C3CC3)on2)CCN1S(=O)(=O)N(C)CCN` [compound 677, N-((2S,4S)-1-(N-(2-aminoethyl)-N-methylsulfamoyl)-2-methylpiperidin-4-yl)-5-cyclopropylisoxazole-3-carboxamide], the figures for the IC50 on SMYD3 [1] and on SMYD3 [2] were 5310 nM and 111 nM, respectively.
In the same order, the values of `CN(C1CCNCC1)S(=O)(=O)N1[C@@H]2CCC[C@H]1C[C@@H](NC(=O)c1cc(C3CC3)on1)C2` [compound 678] are 2660 nM and 113 nM.
On to `C[C@H](N)c1ccc(C(=O)N2CC[C@@H](NC(=O)c3cc(C4CC4)on3)C[C@H]2C)cc1` [compound 679, N-((2R,4R)-1-(4-((S)-1-aminoethyl)benzoyl)-2-methylpiperidin-4-yl)-5-cyclopropylisoxazole-3-carboxamide], for which the half-maximal inhibitory concentration (IC50) came out at 1300 nM on SMYD3 [1] and 113 nM at SMYD3 [2].
For the molecule `C[C@H]1C[C@@H](NC(=O)c2cc(C3CC3)on2)CCN1S(=O)(=O)N1CCN(C)C(C)(C)C1` [compound 680, 5-cyclopropyl-N-((2S,4S)-2-methyl-1-((3,3,4-trimethylpiperazin-1-yl)sulfonyl)piperidin-4-yl)isoxazole-3-carboxamide], the IC50 at SMYD3 [1] was 592 nM; on SMYD3 [2] it was 119 nM.
